ChEMBL document CHEMBL3393039, “Anthranilic acid derivatives as nuclear receptor modulators--development of novel PPAR selective and dual PPAR/FXR ligands” (Bioorg Med Chem, 2015)
Calls of active or inactive are those of the source. The rule behind the calls is not given here.

How the values were obtained:
[1] = molecular target: T1, Peroxisome proliferator-activated receptor gamma (Homo sapiens) (UniProt P37231); test: Transactivation of Gal4-tagged PPARgamma ligand binding domain (unknown origin) expressed in COS7 cells at 30 uM measured after overnight incubation by luciferase reporter gene assay; format: cell-based; conditions: COS-7
T1 sequence (whole entry): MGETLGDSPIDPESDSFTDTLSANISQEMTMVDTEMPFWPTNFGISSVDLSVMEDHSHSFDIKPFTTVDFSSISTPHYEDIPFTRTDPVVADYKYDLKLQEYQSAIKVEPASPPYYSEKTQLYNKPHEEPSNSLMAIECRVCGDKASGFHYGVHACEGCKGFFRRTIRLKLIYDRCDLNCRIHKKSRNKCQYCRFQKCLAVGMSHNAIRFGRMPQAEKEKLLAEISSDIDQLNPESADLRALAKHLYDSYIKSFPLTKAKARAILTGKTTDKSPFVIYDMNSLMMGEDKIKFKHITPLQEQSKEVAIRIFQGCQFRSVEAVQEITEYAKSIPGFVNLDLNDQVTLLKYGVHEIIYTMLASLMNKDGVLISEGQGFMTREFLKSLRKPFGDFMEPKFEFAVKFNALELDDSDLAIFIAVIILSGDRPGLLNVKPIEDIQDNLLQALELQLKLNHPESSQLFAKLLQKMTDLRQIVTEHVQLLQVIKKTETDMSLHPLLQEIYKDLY

[2] = molecular target: T2, Peroxisome proliferator-activated receptor delta (Homo sapiens) (UniProt Q03181); test: Transactivation of Gal4-tagged PPARdelta ligand binding domain (unknown origin) expressed in COS7 cells at 30 uM measured after overnight incubation by luciferase reporter gene assay; format: cell-based; conditions: COS-7
T2 sequence (whole entry): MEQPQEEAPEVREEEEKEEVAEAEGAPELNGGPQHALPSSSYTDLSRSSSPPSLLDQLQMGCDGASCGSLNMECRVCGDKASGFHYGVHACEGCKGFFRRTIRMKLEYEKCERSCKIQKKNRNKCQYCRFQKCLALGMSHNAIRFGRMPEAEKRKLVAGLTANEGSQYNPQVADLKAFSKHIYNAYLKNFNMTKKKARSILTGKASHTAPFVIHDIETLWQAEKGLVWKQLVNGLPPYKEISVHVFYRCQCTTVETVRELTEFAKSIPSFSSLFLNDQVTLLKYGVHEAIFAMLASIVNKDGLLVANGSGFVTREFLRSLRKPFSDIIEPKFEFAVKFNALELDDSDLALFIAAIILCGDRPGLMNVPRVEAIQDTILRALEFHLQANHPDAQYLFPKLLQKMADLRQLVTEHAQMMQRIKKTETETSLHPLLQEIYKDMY

[3] = molecular target: T3, Peroxisome proliferator-activated receptor alpha (Homo sapiens) (UniProt Q07869); test: Transactivation of Gal4-tagged PPARalpha ligand binding domain (unknown origin) expressed in COS7 cells at 30 uM measured after overnight incubation by luciferase reporter gene assay; format: cell-based; conditions: COS-7
T3 sequence (whole entry): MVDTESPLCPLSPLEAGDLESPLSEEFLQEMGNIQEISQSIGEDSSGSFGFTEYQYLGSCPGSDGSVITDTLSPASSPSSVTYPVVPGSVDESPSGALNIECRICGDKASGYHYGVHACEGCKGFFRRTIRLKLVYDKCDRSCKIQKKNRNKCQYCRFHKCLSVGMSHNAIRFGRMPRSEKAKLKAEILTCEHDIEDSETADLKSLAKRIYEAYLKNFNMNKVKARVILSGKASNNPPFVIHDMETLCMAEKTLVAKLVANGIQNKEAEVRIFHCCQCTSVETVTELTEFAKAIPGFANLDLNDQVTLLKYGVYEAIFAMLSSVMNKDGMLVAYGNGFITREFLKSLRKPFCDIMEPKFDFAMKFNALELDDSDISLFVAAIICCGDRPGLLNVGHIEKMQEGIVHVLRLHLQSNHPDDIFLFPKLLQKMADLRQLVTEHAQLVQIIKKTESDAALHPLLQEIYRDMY

[4] = molecular target: T4, Bile acid receptor (Homo sapiens) (UniProt Q96RI1); test: Transactivation of human FXR expressed in human HeLa cells at 30 uM incubated for 24 hrs by luciferase reporter gene assay; format: cell-based
T4 sequence (whole entry): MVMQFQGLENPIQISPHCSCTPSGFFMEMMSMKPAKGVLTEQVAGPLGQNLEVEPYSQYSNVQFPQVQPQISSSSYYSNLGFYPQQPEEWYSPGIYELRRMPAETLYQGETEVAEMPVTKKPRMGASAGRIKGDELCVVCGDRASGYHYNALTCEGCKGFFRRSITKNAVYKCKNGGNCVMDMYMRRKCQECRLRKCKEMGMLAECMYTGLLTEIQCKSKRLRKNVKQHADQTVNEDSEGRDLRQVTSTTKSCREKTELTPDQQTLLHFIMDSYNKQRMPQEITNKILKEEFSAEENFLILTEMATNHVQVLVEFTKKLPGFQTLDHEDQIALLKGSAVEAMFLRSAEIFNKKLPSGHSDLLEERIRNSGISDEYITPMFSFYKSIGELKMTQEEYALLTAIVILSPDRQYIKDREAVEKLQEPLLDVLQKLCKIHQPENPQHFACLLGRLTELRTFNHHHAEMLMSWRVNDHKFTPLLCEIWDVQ

[5] = molecular target: T5, Peroxisome proliferator-activated receptor gamma (Homo sapiens, UniProt P37231); test: Transactivation of Gal4-tagged PPARgamma ligand binding domain (unknown origin) expressed in COS7 cells measured after overnight incubation by luciferase reporter gene assay; format: cell-based, COS-7
T5 sequence (P37231 whole entry): T1 sequence (whole entry)

[6] = molecular target: T6, Peroxisome proliferator-activated receptor alpha (Homo sapiens, UniProt Q07869); test: Transactivation of Gal4-tagged PPARalpha ligand binding domain (unknown origin) expressed in COS7 cells measured after overnight incubation by luciferase reporter gene assay; format: cell-based, COS-7
T6 sequence (Q07869 whole entry): T3 sequence (whole entry)

[7] = molecular target: T1, Peroxisome proliferator-activated receptor gamma (Homo sapiens); test: Transactivation of Gal4-tagged PPARgamma ligand binding domain (unknown origin) expressed in COS7 cells measured after overnight incubation by luciferase reporter gene assay relative to piaglitazone; format: cell-based; conditions: Chlorocebus aethiops; COS-7
[8] = molecular target: T7, Peroxisome proliferator-activated receptor delta (Homo sapiens, UniProt Q03181); test: Transactivation of Gal4-tagged PPARdelta ligand binding domain (unknown origin) expressed in COS7 cells measured after overnight incubation by luciferase reporter gene assay; format: cell-based, COS-7
T7 sequence (Q03181 whole entry): T2 sequence (whole entry)

[9] = molecular target: T4, Bile acid receptor (Homo sapiens); test: Transactivation of human FXR expressed in human HeLa cells incubated for 24 hrs by luciferase reporter gene assay relative to GW4064; format: cell-based
[10] = molecular target: T2, Peroxisome proliferator-activated receptor delta (Homo sapiens); test: Transactivation of Gal4-tagged PPARdelta ligand binding domain (unknown origin) expressed in COS7 cells measured after overnight incubation by luciferase reporter gene assay relative to L165,041; format: cell-based; conditions: Chlorocebus aethiops; COS-7

Activity [1]	Activity [2]	Activity [3]	Activity [4]	EC50 [5]	EC50 [6]	max activation [7]	EC50 [8]	max activation [9]	max activation [10]	SMILES
inactive	inactive	inactive	–	–	–	–	–	–	–	CC(C)(C)c1ccc(C(=O)Nc2ccccc2C(=O)NCCCC(=O)O)cc1
–	inactive	–	inactive	37 µM	10 µM	229%	–	–	–	O=C(O)CCCNC(=O)c1ccccc1NC(=O)c1cccc(-c2ccccc2)c1
–	inactive	inactive	inactive	13 µM	–	135%	–	–	–	O=C(O)CCCNC(=O)c1ccccc1NC(=O)c1ccc(-c2ccccc2)cc1
–	–	–	–	6.2 µM	4.4 µM	121%	5.4 µM	26%	46%	CC(C)(C)c1ccc(C(=O)Nc2ccccc2C(=O)Nc2cccc(CC(=O)O)c2)cc1
inactive	inactive	inactive	inactive	–	–	–	–	–	–	COc1ccc(C(=O)Nc2ccccc2C(=O)Nc2cccc(CC(=O)O)c2)cc1OC
–	–	–	–	4.5 µM	3.6 µM	58%	12 µM	14.3%	44%	O=C(O)c1cccc(NC(=O)c2ccccc2NC(=O)c2ccc(Br)cc2)c1
–	inactive	inactive	–	13.5 µM	–	70%	–	19%	–	Cc1c(NC(=O)c2ccccc2NC(=O)c2ccc(C(C)(C)C)cc2)cccc1C(=O)O
–	inactive	inactive	–	26 µM	–	269%	–	–	–	O=C(O)CCCCNC(=O)c1ccccc1NC(=O)c1ccc2ccccc2c1
inactive	inactive	inactive	–	–	–	–	–	18%	–	CC(C)(C)c1ccc(C(=O)Nc2ccccc2C(=O)Nc2cccc(C#N)c2)cc1
inactive	inactive	inactive	inactive	–	–	–	–	–	–	CC(C)(C)c1ccc(C(=O)Nc2cccc(Cl)c2C(=O)Nc2cccc(C(=O)O)c2)cc1
inactive	inactive	inactive	inactive	–	–	–	–	–	–	N#Cc1ccc(C(=O)Nc2ccccc2C(=O)Nc2cccc(CC(=O)O)c2)cc1
inactive	inactive	inactive	inactive	–	–	–	–	–	–	CN(CCCC(=O)O)C(=O)c1ccccc1NC(=O)c1ccc2ccccc2c1
–	inactive	inactive	–	18.1 µM	–	432%	–	–	–	O=C(O)CCCNC(=O)c1ccccc1NC(=O)c1ccc2ccccc2c1
–	–	–	–	6.9 µM	2.2 µM	240%	3 µM	32%	37%	O=C(O)c1cccc(NC(=O)c2ccccc2NC(=O)c2ccc(C(F)(F)F)c(F)c2)c1
–	inactive	–	–	25 µM	19 µM	221%	–	12%	–	O=C(O)c1cccc(NC(=O)c2ccccc2NC(=O)c2ccc3c(c2)OCO3)c1
–	inactive	–	–	3.9 µM	1.3 µM	348%	–	9.4%	–	CC(C)(C)c1ccc(C(=O)Nc2ccccc2C(=O)Nc2cccc(C(=O)O)c2)cc1
inactive	inactive	inactive	inactive	–	–	–	–	–	–	O=C(O)CCCNC(=O)c1ccccc1NC(=O)C(c1ccccc1)c1ccccc1
–	inactive	inactive	–	21 µM	–	639%	–	–	–	O=C(O)c1ccc(NC(=O)c2ccccc2NC(=O)c2ccc3ccccc3c2)cc1
–	inactive	–	–	4.4 µM	0.74 µM	96%	–	19%	–	COc1ccc(NC(=O)c2ccccc2NC(=O)c2ccc(C(C)(C)C)cc2)cc1C(=O)O
–	–	–	–	5.5 µM	1.96 µM	126%	4.7 µM	–	51%	O=C(O)c1cccc(NC(=O)c2ccccc2NC(=O)c2ccc3ccccc3c2)c1
–	inactive	–	–	4.5 µM	2.9 µM	154%	–	15%	–	COc1ccc(C(=O)O)cc1NC(=O)c1ccccc1NC(=O)c1ccc(C(C)(C)C)cc1
–	inactive	inactive	inactive	23 µM	–	45%	–	–	–	O=C(O)CCCNC(=O)c1ccccc1NC(=O)c1ccccc1-c1ccccc1
–	–	–	–	8.5 µM	5.8 µM	384%	3.2 µM	26%	46%	O=C(O)c1cccc(NC(=O)c2ccccc2NC(=O)c2ccc(C(F)(F)F)cc2)c1
inactive	inactive	inactive	inactive	–	–	–	–	–	–	CN(C(=O)c1ccc2ccccc2c1)c1ccccc1C(=O)NCCCC(=O)O
inactive	inactive	inactive	inactive	–	–	–	–	–	–	CC(C)(C)c1ccc(C(=O)Nc2c(Cl)cccc2C(=O)Nc2cccc(C(=O)O)c2)cc1
–	inactive	–	–	6.3 µM	4.1 µM	82%	–	16%	–	CC(C)(C)c1ccc(C(=O)Nc2ccccc2C(=O)Nc2ccc(Br)c(C(=O)O)c2)cc1
inactive	inactive	inactive	–	–	–	–	–	13%	–	COc1cccc(NC(=O)c2ccccc2NC(=O)c2ccc(C(C)(C)C)cc2)c1
–	inactive	–	–	5.4 µM	9.1 µM	98%	–	19%	–	CC(C)(C)c1ccc(C(=O)Nc2ccccc2C(=O)Nc2ccc(Cl)c(C(=O)O)c2)cc1
